Our source for the mortality, percent effect (mortality or growth inhibition) and percent control (mortality, anti-feedant effect or growth inhibition) values is US20260132125A1, “PESTICIDALLY ACTIVE FUSED BICYCLIC HETEROAROMATIC COMPOUNDS” (priority 2022, published 2026).

Where only a bound is given, the exact number is not on record here.

What all share (format): in vivo
In test [1] the test system is Myzus persicae. As to the kind of experiment: Example B4: activity against Myzus persicae (green peach aphid), intrinsic activity. The conditions noted are these: 120 h, test rate 12 ppm, 5 days after infestation. The gist of the method: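 Compounds from 10′000 ppm DMSO stocks were mixed into sucrose solution in 24-well plates sealed with Parafilm. Aphid-infested pea seedlings were set on the membrane and the plate inverted so aphids fed through it. Mortality scored 5 days after infestation.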

A further test concerns Euschistus heros. Kind of test: Example B3: activity against Euschistus heros (neotropical brown stink bug), soybean leaves. The following applies: for percent effect (mortality or growth inhibition) at 200 ppm: 120 h, N2 nymphs, 5 days after infestation, read-out: effect in at least one of the two categories (mortality or growth inhibition). In outline:
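Soybean leaves on agar sprayed with aqueous dilutions of DMSO stock (10′000 ppm), dried, then infested with N2 nymphs. Mortality and growth inhibition scored against untreated samples 5 days after infestation; application rate 200 ppm.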

A further test deals with Chilo suppressalis. Kind of test: Example B1: activity against Chilo suppressalis (striped rice stemborer), artificial diet. The conditions noted are these: 144 h, 200 ppm, L2 larvae, 6 days after infestation, read-out: control (at least one of mortality, anti-feedant effect, growth inhibition). In outline:
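Artificial diet treated with aqueous dilutions of DMSO stocks (10'000 ppm stock), dried, then infested with 6-8 L2 larvae per well. Mortality, anti-feeding and growth inhibition scored against untreated samples 6 days after infestation. Control counted when any category exceeds untreated.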

The next test has as its system Pseudoplusia includens. Kind of test: Example B9: Pseudoplusia includens (soybean looper), larvicide, feeding/contact, soybean plants. The conditions noted are these: Chrysodeixis includens; for percent effect (mortality or growth inhibition) at 50 ppm: 120 h, L2 larvae, 5 days after infestation, read-out: effect in at least one of the two categories (mortality or growth inhibition). The gist of the method: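 Soybean plants sprayed, cut and held in dishes on wet filter paper; infested 1 d after application with 5 L2 larvae. Mortality and growth inhibition assessed 5 days after infestation; tested at 50 ppm.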

In test [2] the test system is Plutella xylostella. As to the kind of experiment: Example B5: activity against Plutella xylostella (diamond back moth), artificial diet, eggs. The conditions noted are these: 192 h, 8 days after infestation, read-out: effect in at least one of the two categories (mortality or growth inhibition). The gist of the method: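 Artificial diet in 24-well plates was treated with aqueous dilutions of DMSO stocks, dried, then infested with Plutella eggs. Mortality and growth inhibition were scored against untreated samples 8 days after infestation; application rate 200 ppm.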

Another test relates to Spodoptera littoralis. Kind of test: Example B6: activity against Spodoptera littoralis (Egyptian cotton leaf worm), cotton leaf discs. The following applies: foliar, 72 h, 200 ppm, L1 larvae, 3 days after infestation, read-out: control (at least one of mortality, anti-feedant effect, growth inhibition). In outline: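 Five L1 larvae per sprayed, dried cotton leaf disc on agar. Activity is counted when mortality, anti-feedant effect or growth inhibition exceeds the untreated sample at day 3.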

The next test concerns Diabrotica balteata. Kind of test: Example B2: activity against Diabrotica balteata (corn root worm), maize sprouts. The conditions noted are these: 96 h, L2 larvae, 4 days after infestation, read-out: effect in at least one of the two categories (mortality or growth inhibition). The gist of the method:
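Maize sprouts on agar were sprayed with aqueous test solutions made from 10′000 ppm DMSO stocks, dried, then infested with 6–10 L2 larvae per well. Mortality and growth inhibition were scored against untreated samples 4 days after infestation, at an application rate of 200 ppm.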

For test [3], the system named is Carpocapsa (Cydia) pomonella. As to the kind of experiment: Example B10: Carpocapsa (Cydia) pomonella (codling moth), larvicide, feeding/contact, diet cubes. The following applies: 336 h, L1 larvae, 14 days after infestation, read-out: effect in at least one of the two categories (mortality or growth inhibition). The protocol:
Diet cubes coated with paraffin were sprayed with diluted test solutions in an application chamber. After drying off the treated cubes (10 replicates) were infested with 1 L1 larvae. Samples were incubated at 26-27° C. and checked 14 days after infestation for mortality and growth inhibition. The following compounds gave an effect of at least 80% in at least one of the two categories (mortality or growth inhibition) at an application rate of 50 ppm: […]

The next test relates to Tetranychus urticae. Kind of test: Example B8: activity against Tetranychus urticae (two-spotted spider mite), bean leaf discs. The following applies: foliar, 192 h, mixed population (mobile stages), 8 days after infestation. The protocol: Bean leaf discs on agar in 24-well microtiter plates were sprayed with aqueous test solutions prepared from 10′000 ppm DMSO stock solutions. After drying the leaf discs were infested with a mite population of mixed ages. The samples were assessed for mortality on mixed population (mobile stages) 8 days after infestation.

In test [4] the test system is Myzus persicae. Kind of test: Example B7a: Myzus persicae feeding/contact activity, sunflower leaf discs. The following applies: foliar, 144 h, mixed ages, 6 days after infestation. The protocol:
Sunflower leaf discs were placed onto agar in a 24-well microtiter plate and sprayed with aqueous test solutions prepared from 10′000 ppm DMSO stock solutions. After drying, the leaf discs were infested with an aphid population of mixed ages. The samples were assessed for mortality 6 days after infestation.

Test [5] has as its system Plutella xylostella. Kind of test: B14b: Plutella xylostella (diamond back moth), larvicide L3, feeding/contact, Chinese cabbage. The conditions noted are these: 3 ppm. An excerpt:
Activity of compounds P5, P17 and P21 according to the preparatory examples and of a compound from WO 21/083936 against Spodoptera littoralis (Example B6 above), Chilo suppressalis (Example B1 above), Diabrotica balteata (Example B14a below), Plutella xylostella (Example B14b below) and Pseudoplusia includens (Example B9 above) is summarized in Table B14. B14a: Diabrotica balteata (Corn root worm). Larvicide, feeding/contact 3 Corn seedlings were placed on wetted filter paper in plastic cups, and 3 ml of diluted test solutions were pipetted onto them. The cups were infested with 10 L2 larvae and checked for mortality and growth regulation 5 days after treatment. B14b: Plutella xylostella (Diamond back moth). Larvicide L3, feeding/contact Chinese cabbage plants were sprayed with diluted test solutions in an application chamber. Cut off leaves were placed into petri dishes with wetted filter paper and infested 1 day after application with 10 L3 larvae. Samples were assessed 4 days after infestation for mortality and growth regulation.

For orientation: mortality means the percentage killed. Lower therefore signals a weak lethal effect. In the case of `CNC(=O)c1cc(-n2ncnc2[C@H](C)Nc2ncnc3c(C(F)(F)F)cc(Cl)cc23)ncn1` [Compound P3, 6-[5-[(1S)-1-[[6-chloro-8-(trifluoromethyl)quinazolin-4-yl]amino]ethyl]-1,2,4-triazol-1-yl]-N-methyl-pyrimidine-4-carboxamide], the mortality at 12 ppm in the test on Myzus persicae [1] is at least 80%. Further, the percent effect (mortality or growth inhibition) at 200 ppm in the test on Euschistus heros, with Plutella xylostella [2] and with Diabrotica balteata was at least 80% in each case. The percent control (mortality, anti-feedant effect or growth inhibition) at 200 ppm with Chilo suppressalis and in the test with Spodoptera littoralis was at least 80% throughout. The percent effect (mortality or growth inhibition) at 50 ppm (in the test with Pseudoplusia includens; in test [3]) was at least 80% in each case.

In the test on Myzus persicae [1], `C[C@H](Nc1ncnc2c(C(F)(F)F)cc(Cl)cc12)c1ncnn1-c1cnc(C(=O)NCC#N)cn1` [Compound P71] displayed a mortality at 12 ppm of at least 80%. In addition, the percent control (mortality, anti-feedant effect or growth inhibition) at 200 ppm in the test with Chilo suppressalis and with Spodoptera littoralis was at least 80% in each case. Moreover, the percent effect (mortality or growth inhibition) at 200 ppm in the test with Plutella xylostella [2] and in the test on Diabrotica balteata was at least 80% each time. Also, the mortality at 200 ppm in the test on Tetranychus urticae was at least 80%.

Turning to `C[C@@H](c1ncnn1-c1cc(C(=O)NCCC#N)ncn1)N(C)c1ncnc2c(C(F)(F)F)cc(Cl)cc12` [Compound P53, 6-[5-[(1S)-1-[[6-chloro-8-(trifluoromethyl)quinazolin-4-yl]-methyl-amino]ethyl]-1,2,4-triazol-1-yl]-N-(2-cyanoethyl)pyrimidine-4-carboxamide], the mortality at 12 ppm in the test on Myzus persicae [1] is at least 80%. The percent control (mortality, anti-feedant effect or growth inhibition) at 200 ppm in the test with Chilo suppressalis and with Spodoptera littoralis was at least 80% each time. Moreover, the percent effect (mortality or growth inhibition) at 50 ppm (in the test with Pseudoplusia includens; in test [3]) was at least 80% each time. The percent effect (mortality or growth inhibition) at 200 ppm in the test with Plutella xylostella [2] and in the test with Diabrotica balteata was at least 80% throughout.

In the test on Myzus persicae [1], `C[C@H](Nc1ncnc2c(C(F)(F)F)cc(I)cc12)c1ncnn1-c1cc(C(N)=O)ncn1` [Compound P1, 6-[5-[(1S)-1-[[6-iodo-8-(trifluoromethyl)quinazolin-4-yl]amino]ethyl]-1,2,4-triazol-1-yl]pyrimidine-4-carboxamide] returned a mortality at 12 ppm of at least 80%. The percent effect (mortality or growth inhibition) at 200 ppm in the test with Euschistus heros, in the test with Plutella xylostella [2] and in the test on Diabrotica balteata was at least 80% in each case. Further, the percent control (mortality, anti-feedant effect or growth inhibition) at 200 ppm in the test on Chilo suppressalis and in the test with Spodoptera littoralis was at least 80% each time. The percent effect (mortality or growth inhibition) at 50 ppm (in the test on Pseudoplusia includens; in test [3]) was at least 80% each time.

`C[C@H](Nc1ncnc2c(Cl)cc(I)cc12)c1ncnn1-c1cc(C(N)=O)ncn1` [Compound P2, 6-[5-[(1S)-1-[(8-chloro-6-iodo-quinazolin-4-yl)amino]ethyl]-1,2,4-triazol-1-yl]pyrimidine-4-carboxamide] had a mortality at 12 ppm with Myzus persicae [1] of at least 80%. In addition, the percent control (mortality, anti-feedant effect or growth inhibition) at 200 ppm in the test with Chilo suppressalis and in the test on Spodoptera littoralis was at least 80% in each case. In the test on Myzus persicae [4], the mortality at 200 ppm was at least 80%. For the same molecule, the percent effect (mortality or growth inhibition) at 50 ppm (in the test with Pseudoplusia includens; in [3]) was at least 80% each time. In addition, the percent effect (mortality or growth inhibition) at 200 ppm with Plutella xylostella [2] and with Diabrotica balteata was at least 80% each time.

Consider `CNC(=O)c1cc(-n2ncnc2[C@H](C)N(C)c2ncnc3c(C(F)(F)F)cc(Cl)cc23)ncn1` [Compound P9, 6-[5-[(1S)-1-[[6-chloro-8-(trifluoromethyl)quinazolin-4-yl]-methyl-amino]ethyl]-1,2,4-triazol-1-yl]-N-methyl-pyrimidine-4-carboxamide], for which, in the test on Myzus persicae [1], the mortality at 12 ppm was at least 80%. In addition, the percent effect (mortality or growth inhibition) at 200 ppm in the test on Euschistus heros, in the test with Plutella xylostella [2] and in the test on Diabrotica balteata was at least 80% throughout. Besides, the percent control (mortality, anti-feedant effect or growth inhibition) at 200 ppm in the test on Chilo suppressalis and in the test with Spodoptera littoralis was at least 80% each time. The mortality at 200 ppm with Myzus persicae [4] was at least 80%. Besides, the percent effect (mortality or growth inhibition) at 50 ppm (with Pseudoplusia includens; in test [3]) was at least 80% in each case.

`C[C@H](Nc1ncnc2c(Br)cc(Br)cc12)c1ncnn1-c1cc(C(N)=O)ncn1` [Compound P10, 6-[5-[(1S)-1-[(6,8-dibromoquinazolin-4-yl)amino]ethyl]-1,2,4-triazol-1-yl]pyrimidine-4-carboxamide] returned a mortality at 12 ppm with Myzus persicae [1] of at least 80%. In the test on Euschistus heros, this molecule showed a mortality at 200 ppm of 0%. Also, the mortality at 3 ppm in the test on Plutella xylostella [5] was 100%; with Pseudoplusia includens (Pseudoplusia includens, 3 ppm) it was 80%. Also, the percent control (mortality, anti-feedant effect or growth inhibition) at 200 ppm in the test on Chilo suppressalis and in the test with Spodoptera littoralis was at least 80% throughout. Also, the percent effect (mortality or growth inhibition) at 50 ppm (in the test on Pseudoplusia includens; in [3]) was at least 80% each time. The percent effect (mortality or growth inhibition) at 200 ppm in the test on Plutella xylostella [2] and in the test on Diabrotica balteata was at least 80% each time.

In the test with Myzus persicae [1], `CNC(=O)c1cc(-n2ncnc2[C@H](C)Nc2ncnc3c(I)cc(Cl)cc23)ncn1` [Compound P14, 6-[5-[(1S)-1-[(6-chloro-8-iodo-quinazolin-4-yl)amino]ethyl]-1,2,4-triazol-1-yl]-N-methyl-pyrimidine-4-carboxamide] had a mortality at 12 ppm of at least 80%. For the same molecule, the percent control (mortality, anti-feedant effect or growth inhibition) at 200 ppm in the test on Chilo suppressalis and in the test on Spodoptera littoralis was at least 80% in each case. For the same molecule, the mortality at 200 ppm in the test with Myzus persicae [4] was at least 80%. Besides, the percent effect (mortality or growth inhibition) at 50 ppm with Pseudoplusia includens is at least 80%. Moreover, the percent effect (mortality or growth inhibition) at 200 ppm in the test with Plutella xylostella [2] and in the test on Diabrotica balteata was at least 80% in each case.

With `C[C@H](Nc1ncnc2c(I)cc(Cl)cc12)c1ncnn1-c1ncc(C(N)=O)s1` [Compound P29, 2-[5-[(1S)-1-[(6-chloro-8-iodo-quinazolin-4-yl)amino]ethyl]-1,2,4-triazol-1-yl]thiazole-5-carboxamide], the mortality at 12 ppm in the test with Myzus persicae [1] was at least 80%. The percent control (mortality, anti-feedant effect or growth inhibition) at 200 ppm in the test with Chilo suppressalis and in the test on Spodoptera littoralis was at least 80% throughout. In the test with Myzus persicae [4], this molecule showed a mortality at 200 ppm of at least 80%. In addition, the percent effect (mortality or growth inhibition) at 200 ppm in the test on Plutella xylostella [2] and with Diabrotica balteata was at least 80% in each case.
